Assays:
rat liver MAO-B = molecular target: T1, rat liver MAO-B (Rattus norvegicus, UniProt P19643); test: In vitro inhibition of rat liver MAO-B; format: biochemical; conditions: 10 μM [14C]-PEA
T1 construct: from tissue; host or cells: rat liver
T1 sequence (P19643 1-520): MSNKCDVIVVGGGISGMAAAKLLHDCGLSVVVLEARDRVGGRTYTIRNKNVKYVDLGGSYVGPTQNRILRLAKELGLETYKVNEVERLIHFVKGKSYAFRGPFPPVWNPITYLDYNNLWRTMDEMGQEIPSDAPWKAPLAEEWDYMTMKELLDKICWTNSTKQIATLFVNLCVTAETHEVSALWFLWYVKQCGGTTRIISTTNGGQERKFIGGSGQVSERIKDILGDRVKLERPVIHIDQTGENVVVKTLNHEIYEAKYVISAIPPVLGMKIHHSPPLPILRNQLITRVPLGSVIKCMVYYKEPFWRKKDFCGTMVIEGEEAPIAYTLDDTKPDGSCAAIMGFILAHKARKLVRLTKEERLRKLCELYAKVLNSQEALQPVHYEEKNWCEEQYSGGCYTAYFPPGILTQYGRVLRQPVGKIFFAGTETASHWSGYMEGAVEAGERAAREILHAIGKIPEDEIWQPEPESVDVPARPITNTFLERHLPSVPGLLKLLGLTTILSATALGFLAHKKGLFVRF
Experimental: Methods: The soluble extract of the mitochondrial enriched fraction (P2 pellet), which was prepared from brain homogenates of male Sprague-Dawley rats, served as the source of MAO-A enzymatic activity. The P2 fraction was prepared and was stored frozen until being thawed for use on the day of assay. Final concentrations of 50 μM [^14C]-serotonin (5-HT) and 10 μM [^14C]-phenylethylamine (PEA) were employed as specific substrates for MAO-A and MAO-B, respectively. Test compound inhibition was based on competition for oxidation of these radio-labeled substrates. MAO-A assay specificity was enhanced by inclusion of 0.1 μM deprenyl to prevent substrate oxidation by MAO-B. Likewise, MAO-B assays included 0.1 μM clorgyline to block MAO-A activity. […] Inhibition of enzymatic activities was expressed as IC50 and as the Ki, which was calculated using the Cheng-Prusoff equation.

MAO-A = molecular target: T2, MAO-A (Homo sapiens, UniProt P21397); test: Phase I 14-day twice-daily pharmacodynamics; format: in vivo; parameters: administered for 14 days compared to placebo in healthy male and female volunteers; from tissue; host or cells: in vivo, healthy volunteers; conditions: repeated administration 10, 20, 40 mg twice daily
T2 sequence (P21397 1-527): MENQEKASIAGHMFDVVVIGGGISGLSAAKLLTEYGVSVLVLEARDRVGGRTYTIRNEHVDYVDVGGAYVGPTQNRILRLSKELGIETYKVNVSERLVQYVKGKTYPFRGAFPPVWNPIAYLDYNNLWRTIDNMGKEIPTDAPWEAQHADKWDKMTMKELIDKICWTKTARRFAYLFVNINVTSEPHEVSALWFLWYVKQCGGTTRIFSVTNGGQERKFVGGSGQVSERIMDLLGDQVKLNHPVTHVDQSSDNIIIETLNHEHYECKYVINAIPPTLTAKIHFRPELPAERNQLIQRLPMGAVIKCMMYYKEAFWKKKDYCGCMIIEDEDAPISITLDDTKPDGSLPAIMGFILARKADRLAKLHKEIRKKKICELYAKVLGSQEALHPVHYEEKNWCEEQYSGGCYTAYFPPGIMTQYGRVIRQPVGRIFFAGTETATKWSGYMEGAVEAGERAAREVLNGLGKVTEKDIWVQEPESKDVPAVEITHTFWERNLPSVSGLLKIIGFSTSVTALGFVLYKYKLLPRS

[1] = 10, 20 and 40 mg twice daily for 14 days, healthy volunteers
Experimental: Methods: The study was a Phase I, single-center, randomized, parallel-group, multiple-dose, placebo-controlled, pharmacodynamic, pharmacokinetic and safety study in healthy volunteers. To obtain 24 enrolled subjects, screening procedures and inclusion/exclusion criteria were evaluated for 54 subjects during a variable screening period of up to 28 days. Once enrolled, subjects were randomized to either CX157 10 mg, 20 mg or 40 mg or matching placebo administered twice daily for 14 consecutive days.

O=S1(=O)c2ccc(F)cc2Oc2cc(OCC(F)(F)F)ccc21 [CX157, 3-fluoro-7(2,2,2-trifluorethoxy)phenoxathiine-10,10-dioxide]
inhibition of rat liver MAO-B (rat liver MAO-B): did not inhibit
pharmacodynamic activity: MAO-A activity (MAO-A): inhibits MAO-A activity
safety and tolerability [1]: generally safe and well tolerated
